Like-named read-outs stand apart in the source and are kept apart here.
Tests used:
Type in all cases: cell-based, human
MYB [1] = test: HiBiT protein abundance assay, MYB; conditions: modified K562 cells
Experimental: (§1) Compounds described herein were used to screen for effects on quantitative protein abundance using a HiBit assay system (Promega). Quantitative protein abundance was determined by measuring the protein levels of HiBit-tagged protein targets expressed in cell culture via luminescence using the Nano-Glo HiBiT Lytic Detection System, which uses a split complementation assay format to reconstitute NanoBiT enzyme to generate a luminescent signal. A protein abundance assay was developed such that endogenous protein targets could be modified with the HiBiT peptide tag and their abundance could be assessed after compound treatment. Briefly, K562 cell lines containing a HiBiT-modification were treated with various compounds described herein (e.g., compounds of Formulas (I), (II), or (III)). After treatment for 24 hours, the protein abundance of a specific target was determined by measuring luminescence.
(§2) Cells were maintained in IMIDM with 10% FBS. Before the assay, cells were diluted with […] growth media (IMIDM+[…] media) and were seeded in a 384-well plate at a density of 10000 cells/well (for each cell line listed in Table 12). Each compound was prepared as a 10-point 3-fold serial dilution in DMSO with the top dose at a final concentration of 10 μM in the well. Unmodified K562 cells were added at the previously specified density with DMSO to serve as an assay baseline and positive control (PC) and DMSO only with the respective modified cell lines was added to the negative control (NC) columns. Final DMSO concentration was kept at or below 0.25%. Treated cell plates were placed in an incubator at 37° C. with 5% CO2 for 24 hours. After 24 hours, 25 μL of Complete HiBit Lytic reagent was added to each well at room temperature (e.g. one plate requiring 10 mL Lytic Buffer, 100 μL LgBiT Protein, 200 μL Lytic Substrate), shaken for 5 minutes at 600 RPM, then left to sit for 10 minutes for signal to stabilize before reading on a Spark Cyto plate reader (Tecan) with a 500 ms measurement time.
(§3) To determine compound effects on protein abundance of each target in Table 12, the percent response for each respective cell line was calculated at each compound concentration as follows:
(§4) For the normalized response at each concentration, a four-parameter logistical regression was fit to the data and the response was interpolated at the 50% value to determine a concentration for protein abundance at 50% (IC50) the untreated control.

MYB [2] = test: Splicing RT-qPCR assay, MYB mRNA canonical junction (CJ) and alternative junction (AJ); conditions: for AC50: increase in AJ mRNA
Experimental: (§5) Compounds described herein were used to modulate RNA transcript abundance in cells. The expression of a target mRNA was measured by detecting the formation of an exon-exon junction in the canonical transcript (CJ). A compound mediated exon-inclusion event was detected by observing an increase in formation of a new junction with an alternative exon (AJ). Real-time qPCR assays were used to detect these splicing switches and interrogate the potency of various compounds towards different target genes. A high-throughput real time quantitative PCR (RT-qPCR) assay was developed to measure these two isoforms of the mRNA (CJ and AJ) for exemplary genes, such as HTT, SMN2, and MYB, together with a control housekeeping gene, GAPDH or GUSB or PPIA, used for normalization. Briefly, the A673 or K562 cell line was treated with various compounds described herein (e.g., compounds of Formula (I)). After treatment, the levels of the HTT, MYB, or SMN2 mRNA targets were determined from each sample of cell lysate by cDNA synthesis followed by qPCR.
(§6) The A673 cell line was cultured in DMEM with 10% FBS. Cells were diluted with full growth media and plated in a 96-well plate (15,000 cells in 100 ul media per well). The plate was incubated at 37° C. with 5% CO2 for 24 hours to allow cells to adhere. An 11-point 3-fold serial dilution of the compounds was made in DMSO then diluted in media in an intermediate plate. Compounds were transferred from the intermediate plate to the cell plate with the top dose at a final concentration of 10 uM in the well. Final DMSO concentration was kept at or below 0.25%. The cell plate was returned to the incubator at 37° C. with 5% CO2 for an additional 24 hours.
(§7) The K562 cell line was cultured in IMDM with 10% FBS. For K562, cells were diluted with full growth media and plated in either a 96-well plate (50,000 cells in 50 uL media per well) or a 384-well plate (8,000-40,000 cells in 45 uL media per well). An 11-point 3-fold serial dilution of the compounds were made in DMSO then diluted in media in an intermediate plate. Compound was transferred from the intermediate plate to the cell plate with the top dose at a final concentration of 10 uM in the well. Final DMSO concentration was kept at or below 0.25%. Final volume was 100 uL for 96-well plate and 50 uL for 384-well plate. The cell plate was then placed in an incubator at 37° C. with 5% CO2 for 24 hours.
(§8) The cells were then gently washed with 50 uL-100 uL cold PBS before proceeding to addition of lysis buffer. 30 uL-50 μL of room temperature lysis buffer with DNAse I (and optionally RNAsin) was added to each well. Cells were shaken/mixed thoroughly at room temperature for 5-10 minutes for lysis to take place and then 3 uL-5 μL of room temperature stop solution was added and wells were shaken/mixed again. After 2-5 minutes, the cell lysate plate was transferred to ice for RT-qPCR reaction setup. The lysates could also be frozen at −80° C. for later use.
(§9) In some cases, a direct lysis buffer was used. An appropriate volume of 3× lysis buffer (10 mM Tris, 150 mM NaCl, 1.5%-2.5% Igepal and 0.1-1 U/uL RNAsin, pH 7.4) was directly added to either K562 or A673 cells in media and mixed by pipetting 3 times. The plates were then incubated at room temperature with shaking/rocking for 20-50 minutes to allow for lysis to take place. After this time, the cell lysate plate was transferred to ice to set up for the RT-qPCR reactions. The lysates could also be frozen at −80° C. for later use.
(§10) To set up 10 uL RT-qPCR reactions, cell lysates were transferred to 384-well qPCR plates containing the master mix according to the table below. The plates were sealed, gently vortexed, and spun down before the run. The volumes were adjusted accordingly in some instances where the reaction was carried in 20 μL. The table below summarizes the components of the RT-qPCR reactions:
(§11) The RT-qPCR reaction was performed using a QuantStudio (ThermoFisher) under the following fast cycling conditions. […]

HTT [3] = test: HiBiT protein abundance assay, HTT; conditions: modified K562 cells
Experimental: as §1, §2, §3, §4

Target C [4] = test: HiBiT protein abundance assay, Target C; conditions: Homo sapiens, K562, 24 h, modified K562 cells
Experimental: • Promega Nano-Glo HiBiT Lytic Detection System (cat #N3030) • Coming 384-well TC-treated microplates (cat #3570) • Synthego Engineered Cells Knock-In Clones
as §2, §3, §4

Target C [5] = test: Splicing RT-qPCR panel, Target C canonical junction (CJ) mRNA; conditions: read-out: Target C IC50 (decrease in CJ mRNA levels)
Experimental: as §5, §6, §7, §8, §9, §10, §11

HTT [6] = test: Splicing RT-qPCR assay, HTT mRNA canonical junction (CJ) and alternative junction (AJ); conditions: for AC50: increase in AJ mRNA
Experimental: as §5, §6, §7, §8, §9, §10, §11

SMN2 = test: Splicing RT-qPCR panel, SMN2 canonical junction (CJ) mRNA; conditions: read-out: SMN2 IC50 (decrease in CJ mRNA levels)
Experimental: as §5, §6, §7, §8, §9, §10, §11

[7] = Homo sapiens, K562, 24 h, Table 13A
[8] = Homo sapiens, 24 h, decrease in CJ mRNA, A673 or K562 cells, 24 hours treatment, RT-qPCR, read-out: MYB CJ IC50
[9] = Homo sapiens, 24 h, A673 or K562 cells, 24 hours treatment, RT-qPCR
[10] = Homo sapiens, RT-qPCR panel, canonical junction mRNA, compound concentration having 50% response in CJ decrease, read-out: MYB IC50 (decrease in CJ mRNA levels)
[11] = Homo sapiens, RT-qPCR panel, canonical junction mRNA, compound concentration having 50% response in CJ decrease
[12] = Homo sapiens, 24 h, decrease in CJ mRNA, A673 or K562 cells, 24 hours treatment, RT-qPCR, read-out: HTT CJ IC50
[13] = Homo sapiens, RT-qPCR panel, canonical junction mRNA, compound concentration having 50% response in CJ decrease, read-out: HTT IC50 (decrease in CJ mRNA levels)
[14] = Homo sapiens, K562, 24 h, Table 13B
[15] = Homo sapiens, gene panel, CJ qPCR, protocol of Example 142, read-out: MYB IC50 (decrease in CJ mRNA levels)
[16] = Homo sapiens, gene panel, CJ qPCR, protocol of Example 142
[17] = Homo sapiens, gene panel, CJ qPCR, protocol of Example 142, read-out: HTT IC50 (decrease in CJ mRNA levels)
[18] = RT-qPCR panel, canonical junction mRNA, compound concentration having 50% response in CJ decrease

Row | Compound | IC50 (MYB [1]; [7]) | IC50 (MYB [2]; [8]) | AC50 (MYB [2]; [9]) | IC50 (MYB [2]; [10]) | IC50 (HTT [3]; [7]) | IC50 (Target C [4]; Table 13A) | IC50 (Target C [5]; [11]) | IC50 (HTT [6]; [12]) | AC50 (HTT [6]; [9]) | IC50 (HTT [6]; [13]) | IC50 (SMN2; [11]) | IC50 (MYB [2]; [15]) | IC50 (Target C [5]; [16]) | IC50 (HTT [6]; [17]) | IC50 (SMN2; [16]) | also measured
1 | CN(c1ccc(-c2ccc(-n3cccn3)c3cn[nH]c23)nn1)C1CCNCC1 [Compound 264] | 1000 to 10000 nM | > 10000 nM | > 10000 nM | > 10000 nM | 1000 to 10000 nM | 1000 to 10000 nM | > 10000 nM | > 10000 nM | > 10000 nM | > 10000 nM | 1000 to 10000 nM | – | – | – | – | –
2 | COc1nc(-c2ccc(OC3CC4CC(F)(F)C(C3)N4)nn2)ccc1-c1ccnc(C)c1 (stereo not shown) [Compound 964] | – | – | – | – | – | – | – | – | – | – | – | > 10000 nM | > 10000 nM | > 10000 nM | > 10000 nM | IC50 (MYB [1]; [14]): > 10000 nM; IC50 (HTT [3]; [14]): > 10000 nM; IC50 (Target C [4]; Table 13B): > 10000 nM
3 | CC(C)(C)NC1CCN(c2ccc(-c3ccc(-c4cn[nH]c4)c4cn[nH]c34)nn2)C1 (stereo not shown) [Compound 305] | 100 to 1000 nM | 1000 to 10000 nM | 1000 to 10000 nM | 1000 to 10000 nM | 100 to 1000 nM | 1000 to 10000 nM | 1000 to 10000 nM | 100 to 1000 nM | 100 to 1000 nM | 100 to 1000 nM | < 100 nM | – | – | – | – | –
4 | c1cnn(-c2ccc(-c3cnc(N4CCNC(C5CC5)C4)nn3)c3cn[nH]c23)c1 (stereo not shown) [Compound 555] | – | – | – | – | – | – | – | – | – | – | – | – | – | – | – | IC50 (MYB [1]; Table 13A, 24 hours): 1000 to 10000 nM; IC50 (MYB [2]; RT-qPCR panel, canonical junction mRNA, compound concentration having 50% response in CJ decrease, read-out: MYB IC50 (decrease in CJ mRNA levels)): 1000 to 10000 nM; IC50 (HTT [3]; Table 13A, 24 hours): 100 to 1000 nM; IC50 (Target C [5]; [18]): 100 to 1000 nM; IC50 (HTT [6]; RT-qPCR panel, canonical junction mRNA, compound concentration having 50% response in CJ decrease, read-out: HTT IC50 (decrease in CJ mRNA levels)): < 100 nM; IC50 (SMN2; [18]): 100 to 1000 nM
5 | COc1nc(-c2ccc(OC3CC(C)(C)NC(C)(C)C3)nc2)ccc1-c1cnn(C)c1 [Compound 990] | – | – | – | – | – | – | – | – | – | – | – | > 10000 nM | > 10000 nM | > 10000 nM | 1000 to 10000 nM | –
6 | CN(c1cnc(-c2cc(F)c(-c3cnn(C)c3)c3cn[nH]c23)nn1)[C@@H]1C[C@H]2CC[C@@H](C1)N2 [Compound 290] | – | 1000 to 10000 nM | 100 to 1000 nM | 1000 to 10000 nM | – | – | 100 to 1000 nM | – | < 100 nM | < 100 nM | 100 to 1000 nM | – | – | – | – | –

From US20240368163A1, “COMPOUNDS AND METHODS FOR MODULATING SPLICING” (REMIX THERAPEUTICS INC., priority 2021, published 2024)
